pIC50: −log10 of the molar value.
Columns and labels:
JAK2 = JAK2 (Homo sapiens, UniProt O60674); experiment: JAK kinase inhibitor activity detection (ULight-JAK-1 substrate, Eu-labeled anti-phosphotyrosine antibody), JAK2; assay type: biochemical; conditions: JAK2 0.125 nM, substrate 50 nM, ATP 10 μM, 1 h room temperature
Procedure: (§1) Activity Detection of Small Molecule Inhibitors of JAK Kinase
(§2) • (1) kinase reaction buffer • Prepare the kinase reaction buffer with the following components: 50 mM HEPES, pH 7.5, 1 mM EGTA, 10 mM MgCl2, 2 mM DTT, 0.01% Tween20 • (2) 1× detection buffer • To prepare detection buffer, dilute 10× detection buffer to 1× with deionized water 9:1 • (3) 4× kinase solution • Dilute JAK to 4× final concentration by JAK reaction buffer (JAK1: 40 nM, JAK2: 0.5 nM) • (4) 4× substrate solution • Dilute ULight™-JAK-1 (Tyr1023) substrate to 200 nM by kinase reaction buffer (final concentration: 50 nM) • (5) 4×ATP solution • Dilute ATP to 4× final concentration by kinase reaction buffer (JAK1: 160 μM, JAK2: 40 μM) • (6) 4× compound testing solution • DMSO dissolves the testing compound into 10 mM stock solution, then prepared to the desired concentration with 3-fold serial dilution, and 10 concentration points were set for each compound. Besides, the final concentration range of the testing compound is: 10 μM-0.5 nM • (7) 4× enzyme reaction termination liquid • 1× test buffer dissolves EDTA to 40 mM (EDTA final concentration: 10 mM) • (8) 4× antibody detection solution • 1× test buffer dilutes Eu labeled antibody (anti-phosphotyrosine (PT66)) to 8 nM (antibody final concentration: 2 nM) 2. Experimental Process • (1) Successively add 2.5 μL 4×JAK solution, and 2.5 μL of diluted 4× test compound solution in different concentrations to the 384 microporous plate, and set 2 multi-wells for each concentration. Meanwhile, set enzyme solution blank control group and negative control group (DMSO group). • (2) Shake the 384-hole plate, mix enzymes and compounds, centrifuge at 1000 rpm for 1 minute, and incubate at room temperature for 60 minutes • (3) Add 2.5 μL of 4× substrate solution to a 384-hole plate and centrifuge at 1000 rpm for 1 min • (4) Add 2.5 μL of 4×ATP solution to the 384 multi-well plate and centrifuge at 1000 rpm for 1 minute to initiate the enzyme reaction. • (5) JAK1 reacts at room temperature for 2 h, and JAK2 react at room temperature for 1 h. • (6) The final concentrations of each group of the JAK1 reaction are: JAK1: 10 nM, substrate: 50 nM, ATP: 40 uM, and the final concentration range of the test compound is: 10 μM-0.5 nM • The final concentrations of each group of the JAK2 reaction are: JAK2: 0.125 nM, substrate: 50 nM, ATP: 10 μM, and the final concentration range of test compounds is: 10 μM-0.5 nM • (7) After the enzyme reaction, add 5 μL of 4× enzyme reaction stop solution to each well of the 384-well plate with 1000 rpm, centrifuge for 1 minute, and incubate at room temperature for 5 min. • (8) Add 5 μL of 4× detection antibody solution to each well of a 384-well plate (final concentration of detection antibody is 2 nM) with 1000 rpm, centrifuge for 1 minute, and incubate at room temperature for 1 h. • (10) After antibody incubation, measure the signal value of each well on an Envision plate reader 3. Data Analysis • (1) Taking the enzyme solution blank control group as 100% inhibition rate and the negative control group (DMSO group) as 0% inhibition rate, calculate the percentage inhibition rate corresponding to each concentration of the tested compounds • (2) In GraphPad Prism software, nonlinear regression analysis is performed on the concentration logarithm of the test compound and the corresponding percentage inhibition rate to obtain the half-inhibitory concentration (IC50) of the test compound.

JAK1 = JAK1 (Homo sapiens, UniProt P23458); experiment: JAK kinase inhibitor activity detection (ULight-JAK-1 substrate, Eu-labeled anti-phosphotyrosine antibody), JAK1; assay type: biochemical; conditions: JAK1 10 nM, substrate 50 nM, ATP 40 uM, 2 h room temperature
Chain of JAK1 (P23458 whole entry, species assumed): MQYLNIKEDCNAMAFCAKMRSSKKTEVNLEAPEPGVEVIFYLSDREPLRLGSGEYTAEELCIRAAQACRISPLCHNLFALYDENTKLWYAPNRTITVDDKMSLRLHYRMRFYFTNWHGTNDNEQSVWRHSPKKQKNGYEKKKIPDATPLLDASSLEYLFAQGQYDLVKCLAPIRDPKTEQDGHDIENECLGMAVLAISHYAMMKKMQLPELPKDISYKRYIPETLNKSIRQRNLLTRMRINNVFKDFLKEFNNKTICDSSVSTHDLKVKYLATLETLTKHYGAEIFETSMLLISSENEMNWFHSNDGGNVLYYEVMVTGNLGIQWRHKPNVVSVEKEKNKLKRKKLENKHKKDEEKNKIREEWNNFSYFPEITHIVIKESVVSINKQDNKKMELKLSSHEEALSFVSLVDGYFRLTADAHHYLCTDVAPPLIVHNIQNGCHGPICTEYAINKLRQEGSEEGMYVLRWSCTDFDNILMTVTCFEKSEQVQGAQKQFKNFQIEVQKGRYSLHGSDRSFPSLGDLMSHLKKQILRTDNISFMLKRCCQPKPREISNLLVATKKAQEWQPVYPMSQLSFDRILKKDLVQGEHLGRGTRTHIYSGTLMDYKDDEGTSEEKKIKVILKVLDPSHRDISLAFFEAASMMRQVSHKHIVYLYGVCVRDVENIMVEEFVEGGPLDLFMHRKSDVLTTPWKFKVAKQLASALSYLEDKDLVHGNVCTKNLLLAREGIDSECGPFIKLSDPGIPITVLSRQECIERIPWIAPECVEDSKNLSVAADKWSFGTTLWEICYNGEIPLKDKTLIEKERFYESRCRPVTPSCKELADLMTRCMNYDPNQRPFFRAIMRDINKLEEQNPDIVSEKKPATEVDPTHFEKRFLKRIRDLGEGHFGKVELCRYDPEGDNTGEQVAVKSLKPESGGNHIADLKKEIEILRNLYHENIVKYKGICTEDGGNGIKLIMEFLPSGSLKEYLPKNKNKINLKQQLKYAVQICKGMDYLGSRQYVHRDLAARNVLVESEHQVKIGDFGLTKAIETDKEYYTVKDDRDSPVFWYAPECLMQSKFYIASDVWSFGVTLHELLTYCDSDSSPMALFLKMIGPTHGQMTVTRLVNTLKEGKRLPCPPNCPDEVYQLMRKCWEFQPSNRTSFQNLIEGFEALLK
Procedure: as §1, §2

Chain of JAK2 (O60674 whole entry, species assumed): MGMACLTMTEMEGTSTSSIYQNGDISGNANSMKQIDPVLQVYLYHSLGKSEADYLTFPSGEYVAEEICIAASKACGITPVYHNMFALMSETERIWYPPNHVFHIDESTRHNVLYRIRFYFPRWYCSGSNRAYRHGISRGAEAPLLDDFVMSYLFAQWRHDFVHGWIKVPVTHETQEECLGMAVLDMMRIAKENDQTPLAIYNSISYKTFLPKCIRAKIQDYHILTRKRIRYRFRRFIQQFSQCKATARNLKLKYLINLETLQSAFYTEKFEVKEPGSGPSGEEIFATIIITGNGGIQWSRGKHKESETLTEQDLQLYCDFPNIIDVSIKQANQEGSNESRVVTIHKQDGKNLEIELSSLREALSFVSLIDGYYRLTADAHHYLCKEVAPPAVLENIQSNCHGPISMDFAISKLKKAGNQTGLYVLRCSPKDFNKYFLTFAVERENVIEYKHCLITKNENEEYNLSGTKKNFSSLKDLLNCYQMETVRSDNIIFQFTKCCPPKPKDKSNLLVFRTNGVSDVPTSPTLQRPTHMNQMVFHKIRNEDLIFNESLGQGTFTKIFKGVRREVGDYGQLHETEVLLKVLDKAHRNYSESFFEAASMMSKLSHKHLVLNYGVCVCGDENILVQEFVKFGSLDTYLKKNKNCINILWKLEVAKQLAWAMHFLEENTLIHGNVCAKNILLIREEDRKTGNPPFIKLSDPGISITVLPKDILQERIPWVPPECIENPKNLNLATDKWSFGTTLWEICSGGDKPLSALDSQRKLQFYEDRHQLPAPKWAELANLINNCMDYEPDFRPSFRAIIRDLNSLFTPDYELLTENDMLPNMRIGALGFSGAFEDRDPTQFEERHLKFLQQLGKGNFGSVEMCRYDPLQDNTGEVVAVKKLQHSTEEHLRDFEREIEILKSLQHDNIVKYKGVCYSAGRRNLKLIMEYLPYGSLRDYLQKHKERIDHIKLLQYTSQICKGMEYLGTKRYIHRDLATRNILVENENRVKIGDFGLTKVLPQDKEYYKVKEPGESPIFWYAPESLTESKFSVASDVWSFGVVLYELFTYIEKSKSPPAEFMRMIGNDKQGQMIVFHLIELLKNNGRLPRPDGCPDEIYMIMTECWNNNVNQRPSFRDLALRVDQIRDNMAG

Row | SMILES | pIC50 (JAK2) | pIC50 (JAK1)
1 | CC[C@@H]1C[C@H](CC#N)CN1n1cnc2cnc3[nH]ccc3c21 [Example 36-2, 2-((3R,5R)-5-ethyl-1-(imidazo[4,5-d]pyrrolo[2,3-b]pyridine-1(6H)-yl)pyrrolidin-3-yl) acetonitrile] | 6.90 | 7.36
2 | N#CCCC1CCN(n2cnc3cnc4[nH]ccc4c32)CC1 [Example 11] | 8.53 | 9.24
3 | CCc1nc2cnc3[nH]ccc3c2n1N1CCC(CC#N)CC1 [Example 4, 2-(1-(ethylimidazo[4,5-d]pyrrolo[2,3-b]pyridine-1(6H)-yl)piperidin-4-yl)acetonitrile] | 9.02 | 9.33
4 | C[C@@H](O)c1nc2cnc3[nH]ccc3c2n1N1CCCC(CC#N)CC1 (stereo partly drawn) [Example 27, 2-(1-(2-((R)-1-hydroxyethyl)imidazo[4,5-d]pyrrolo[2,3-b]pyridin-1(6H)-yl)-6-azepan-4-yl)acetonitrile] | 8.64 | 8.77
5 | N#CCC1CC2CCC(C1)N2n1cnc2cnc3[nH]ccc3c21 (stereo not drawn) [Example 21, 2-(8-(imidazo[4,5-d]pyrrolo[2,3-b]pyridin-1(6H)-yl)-8-azabicyclo[3.2.1]octan-3-yl)acetonitrile] | 8.32 | 9.04
6 | N#CC=C1CCN(n2cnc3cnc4[nH]ccc4c32)CC1 [Example 16, 2-(1-(imidazo[4,5-d]pyrrolo[2,3-b]pyridin-1(6H)-yl)piperidin-4-ylidene)acetonitrile] | 7.79 | 8.88
7 | N#CCC1CCN(n2cnc3cnc4[nH]ccc4c32)CC1 [Example 2, 2-(1-(imidazo[4,5-d]pyrrolo[2,3-b]pyridine-1(6H)-yl)piperidin-4-yl)acetonitrile] | 8.77 | 9.55
8 | C[C@@H](O)c1nc2cnc3[nH]ccc3c2n1N1C2CCC1CC(CC#N)C2 (stereo partly drawn) [Example 23, 2-(8-(2-((R)-1-hydroxyethyl)imidazo[4,5-d]pyrrolo[2,3-b]pyridin-1(6H)-yl)-8-azabicyclo[3.2.1]octan-3-yl)acetonitrile] | 8.22 | 8.57
9 | N#CC=C1CC2CCC(C1)N2n1cnc2cnc3[nH]ccc3c21 [Example 20, 2-(8-(imidazo[4,5-d]pyrrolo[2,3-b]pyridin-1(6H)-yl)-8-azabicyclo[3.2.1]octan-3-ylidene)acetonitrile] | 8.72 | 8.37

From patent US12478620B2, “Cyano-substituted cyclic hydrazine derivative and application thereof” (E-nitiate Biopharmaceuticals (Hangzhou) Co., Ltd, priority 2019, dated 2025)
